Experimental findings from patent US11576914B2, “Drug for treating or preventing disorder caused by TGF-β signaling, and application thereof” (THE DOSHISHA, priority 2017, dated 2023) are described below.

Assay [1] relates to Fuchs corneal endothelial dystrophy (FECD) model mice (Col8a2 Q455K/Q455K). The assay can be described thus: In vivo evaluation in FECD model mice. The note with it: ophthalmic solution 0.1 mM, 1 mM, 10 mM, 2 μl twice daily, 3 months. The method, then:
In the present example, mice having a type 8 collagen mutation (Col8a2^Q455K/Q455K) are used as Fuchs corneal endothelial dystrophy (FECD) model mice.
Grading of the severity of FECD was performed on the basis of corneal endothelium images prior to instillation testing, and FECD model mice aged 20-24 weeks with similar symptoms were used. The prepared AKP-001 ophthalmic solution (0.1 mM, 1 mM, and 10 mM) is instilled into the left and right eyes, 2 μl at a time, twice daily in the morning and evening for 45 mice. Otsuka Normal Saline (Otsuka Pharmaceutical Co., Ltd.) is used as a control. The instillation period is set to be 3 months, during which the person in charge of the experimentation carries out the experimentation in a blinded state regarding the AKP-001 ophthalmic solution and the control ophthalmic solution.
Prior to the start of the instillation testing, corneal endothelial images are observed with a contact corneal endothelial specular (KSSP slit-scanning wide-field contact specular microscope (Konan medical Inc., Hyogo, Japan)) to conduct grading. After starting the instillation testing, the corneal endothelial images of the mice are observed once every 4 weeks using the contact corneal endothelial specular to evaluate the effectiveness of the AKP-001 ophthalmic solution.

The test system of assay [2] is Fuchs' endothelial corneal dystrophy patient-derived immortalized corneal endothelial cells. Description: Cell damage inhibitory effect on iFECD stimulated with TGF-β2 (phase contrast microscope). Format: cell-based, human. As for the experimental part: The medium was removed from the culture dish in which Fuchs' endothelial corneal dystrophy patient-derived immortalized corneal endothelial cells (hereinafter, referred to as disease model cells) were being cultured, and the cells were supplemented with 1×PBS (−) that was preheated to 37° C., and were washed. This operation was repeated twice. The cells were supplemented with 1×PBS (−) again and incubated for 5 minutes at 37° C. (5% CO2). After the PBS (−) was removed, the cells were supplemented with 0.05% Trypsin-EDTA (nacalai tesque, 32778-34) and incubated for 5 minutes at 37° C. (5% CO2). The cells were then suspended in a medium, and collected by centrifugation at 1500 rpm for 3 minutes. DMEM (nacalai tesque, 08456-36)+10% FBS (Biowest, S1820-500)+1% P/S (nacalai tesque, 26252-94) was used as the medium. The disease model cells were seeded in a 6-well plate at a rate of 1.5×10^5 cells per well and cultured at 37° C. (5% CO2) for 48 hours. DMEM+10% FBS+1% P/S was used as the medium.
After 48 hours, the medium was removed, and AKP-001, SB203580 (Cayman, 13067), PH-797804 (Selleck Chemicals, S2726) and VX-702 (Selleck Chemicals, 56005) were added to DMEM+2% FBS+1% P/S so that the final concentration was 0.01, 0.03, 0.1, 0.3, 1, 3, 10 and 30 μM, followed by culturing as 24-hour pretreatment. After 24 hours, the medium was removed, and AKP-001, 5B203580 (Cayman, 13067), PH-797804 (Selleck Chemicals, S2726), or VX-702 (Selleck Chemicals, S6005), together with 100 ng/ml Recombinant Human TGF-β2 (R&D systems, RND302-B2-002), were added to DMEM+2% FBS+1% P/S so that the final concentration was 0.01 μM, 0.03 μM, 0.1 μM, 0.3 μM, 1 μM, 3 μM, 10 μM, and 30 μM, followed by culturing for 24 hours. After 24 hours, cell damage was evaluated by observation with a phase contrast microscope. As a control, immortalized corneal endothelial cells that were not stimulated with TGF-β were used.

Assay [3] relates to immortalized human corneal endothelial cells (iHCEC). Description: Cell damage by ER stress induced by thapsigargin. Format: cell-based. As to conditions: 24 hours pretreatment, 20 μM thapsigargin 3 hours. As for the experimental part:
The medium was removed from a culture dish in which immortalized human corneal endothelial cells (iHCEC) were being cultured, and the cells were supplemented with 1×PBS (−) that was preheated to 37° C., and were washed. This operation was repeated twice. The cells were supplemented again with 1×PBS (−) and incubated for 5 minutes at 37° C. (5% CO2). After removing the PBS (−), the cells were supplemented with 0.05% Trypsin-EDTA (Nacalai Tesque, 32778-34) and incubated for 5 minutes at 37° C. (5% CO2). The cells were then suspended in a medium, and collected by centrifugation at 1500 rpm for 3 minutes. DMEM (Nacalai Tesque, 08456-36)+10% FBS (Biowest, S1820-500)+1% P/S (Nacalai Tesque, 26252-94) was used as the medium. Immortalized human corneal endothelial cells (lot: iHCEC1-1) were seeded on a 12-well plate at a ratio of 8×10^4 cells per well and cultured for 48 hours at 37° C. (5% CO2) while using DMEM+10% FBS+1% P/S as the medium. The medium was then removed, and each inhibitor was added to culture the cells for 24 hours using DMEM+2% FBS+1% P/S as the medium. The medium was then removed. A medium (DMEM+2% FBS+1% P/S) containing 20 μM thapsigargin (Wako, 209-17281) and AKP-001 was added to culture the cells for 3 hours. Then, the cell morphology and apoptosis were observed using a phase contrast microscope.

Each structure is given as a SMILES string. “Also recorded” adds a separate entry of the source.

`O=C(Cc1c(F)cccc1Cl)Nc1onc(-c2ccc(F)cc2)c1-c1ccncn1` [AKP-001, 5-[(2-chloro-6-fluorophenyl)acetylamino]-3-(4-fluorophenyl)-4-(4-pyrimidinyl)isoxazole]: in assay [1], the “decrease in corneal endothelial cell density compared to the control” value was “suppressed” and the “percentage of the area of guttae compared to the control” value is reported as “decreased”. Besides, the “damage inhibitory effect for the corneal endothelial cells” value in assay [2] (0.01 μM) is “observed”. Also, in assay [2] (0.1 μM, 0.3 μM, 1 μM and 3 μM, iFECD, pretreatment, TGF-β2 stimulation), the “disorder in the corneal endothelial cells” value is “effectively suppressed”. In addition, in assay [2] (at sub-μM), the “cell damage inhibitory effect for the corneal endothelial cells” value is recorded as “exerted an inhibitory effect; also recorded: able to suppress cell damage”. In assay [3], the “damage to the corneal endothelial cells” value is “suppression of damage to the corneal endothelial cells was observed”.
